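Step 1: Grow cells in 96-well plates. Step 2: Expose to compound for 48 hours at 5 concentrations. Step 3: Interpolate endpoints linearly; if unreached, use highest concentration. At the TGI there is no net growth.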
What was measured:
Assay in all cases: NCI-60 cell line screen, 48 h
A498 renal = tested on: A498 renal
ACHN renal = tested on: ACHN renal
CCRF-CEM leukemia = tested on: CCRF-CEM leukemia
COLO 205 colon = tested on: COLO 205 colon
DMS 114 small cell lung = tested on: DMS 114 small cell lung
HL-60(TB) leukemia = tested on: HL-60(TB) leukemia
HOP-62 NSCLC = tested on: HOP-62 NSCLC
HOP-92 NSCLC = tested on: HOP-92 NSCLC
HT29 colon = tested on: HT29 colon
IGROV1 ovarian = tested on: IGROV1 ovarian
K-562 leukemia = tested on: K-562 leukemia
KM12 colon = tested on: KM12 colon
KM20L2 colon = tested on: KM20L2 colon
LXFL 529 NSCLC = tested on: LXFL 529 NSCLC
M14 melanoma = tested on: M14 melanoma
M19-MEL melanoma = tested on: M19-MEL melanoma
MALME-3M melanoma = tested on: MALME-3M melanoma
MOLT-4 leukemia = tested on: MOLT-4 leukemia
NCI-H23 lung = tested on: NCI-H23 lung
NCI-H460 lung = tested on: NCI-H460 lung
NCI-H522 lung = tested on: NCI-H522 lung
OVCAR-3 ovarian = tested on: OVCAR-3 ovarian
OVCAR-4 ovarian = tested on: OVCAR-4 ovarian
OVCAR-5 ovarian = tested on: OVCAR-5 ovarian
RPMI-8226 leukemia = tested on: RPMI-8226 leukemia
RXF 393 renal = tested on: RXF 393 renal
SF-268 CNS = tested on: SF-268 CNS
SF-295 CNS = tested on: SF-295 CNS
SK-MEL-2 melanoma = tested on: SK-MEL-2 melanoma
SK-MEL-28 melanoma = tested on: SK-MEL-28 melanoma
SK-OV-3 ovarian = tested on: SK-OV-3 ovarian
SNB-19 CNS = tested on: SNB-19 CNS
SNB-75 CNS = tested on: SNB-75 CNS
SNB-78 CNS = tested on: SNB-78 CNS
SR leukemia = tested on: SR leukemia
U251 CNS = tested on: U251 CNS
UACC-257 melanoma = tested on: UACC-257 melanoma
UACC-62 melanoma = tested on: UACC-62 melanoma
UO-31 renal = tested on: UO-31 renal
786-0 renal = tested on: 786-0 renal
A549 NSCLC = tested on: A549 NSCLC
BT-549 breast = tested on: BT-549 breast
CAKI-1 renal = tested on: CAKI-1 renal
DU-145 prostate = tested on: DU-145 prostate
EKVX NSCLC = tested on: EKVX NSCLC
HCC-2998 colon = tested on: HCC-2998 colon
HCT-116 colon = tested on: HCT-116 colon
HCT-15 colon = tested on: HCT-15 colon
HS 578T breast = tested on: HS 578T breast
LOX IMVI melanoma = tested on: LOX IMVI melanoma
MCF7 breast = tested on: MCF7 breast
MDA-MB-231 breast = tested on: MDA-MB-231 breast
MDA-MB-435 = tested on: MDA-MB-435
MDA-N = tested on: MDA-N
NCI-H226 lung = tested on: NCI-H226 lung
NCI/ADR-RES ovarian = tested on: NCI/ADR-RES ovarian
OVCAR-8 ovarian = tested on: OVCAR-8 ovarian
PC-3 prostate = tested on: PC-3 prostate
SF-539 CNS = tested on: SF-539 CNS
SK-MEL-5 melanoma = tested on: SK-MEL-5 melanoma
SN12C renal = tested on: SN12C renal
SW-620 colon = tested on: SW-620 colon
T-47D breast = tested on: T-47D breast
TK-10 renal = tested on: TK-10 renal
DLD-1 colon = tested on: DLD-1 colon
HOP-18 NSCLC = tested on: HOP-18 NSCLC

CCO[C@@H]1OC(=O)[C@@](C)(C(C)=O)[C@@H]1C
TGI (A498 renal): > 100 µM
TGI (ACHN renal): > 100 µM
TGI (CCRF-CEM leukemia): 49.5 µM
TGI (COLO 205 colon): > 100 µM
TGI (DMS 114 small cell lung): 68.9 µM
TGI (HL-60(TB) leukemia): 78.6 µM
TGI (HOP-62 NSCLC): 56.6 µM
TGI (HOP-92 NSCLC): 94.9 µM
TGI (HT29 colon): 34.6 µM
TGI (IGROV1 ovarian): > 100 µM
TGI (K-562 leukemia): > 100 µM
TGI (KM12 colon): > 100 µM
TGI (KM20L2 colon): > 100 µM
TGI (LXFL 529 NSCLC): 47.6 µM
TGI (M14 melanoma): 70.4 µM
TGI (M19-MEL melanoma): 40.9 µM
TGI (MALME-3M melanoma): 77.5 µM
TGI (MOLT-4 leukemia): 61.1 µM
TGI (NCI-H23 lung): 28.7 µM
TGI (NCI-H460 lung): > 100 µM
TGI (NCI-H522 lung): > 100 µM
TGI (OVCAR-3 ovarian): 31.4 µM
TGI (OVCAR-4 ovarian): > 100 µM
TGI (OVCAR-5 ovarian): > 100 µM
TGI (RPMI-8226 leukemia): 48.6 µM
TGI (RXF 393 renal): 70.2 µM
TGI (SF-268 CNS): 44.1 µM
TGI (SF-295 CNS): 66 µM
TGI (SK-MEL-2 melanoma): 52 µM
TGI (SK-MEL-28 melanoma): 29.9 µM
TGI (SK-OV-3 ovarian): > 100 µM
TGI (SNB-19 CNS): 68.3 µM
TGI (SNB-75 CNS): 25.7 µM
TGI (SNB-78 CNS): 84.9 µM
TGI (SR leukemia): > 100 µM
TGI (U251 CNS): 56.7 µM
TGI (UACC-257 melanoma): 78.9 µM
TGI (UACC-62 melanoma): 53.3 µM
TGI (UO-31 renal): > 100 µM

COc1cccc2cc(C(=O)Nc3ccccn3)c(=N)oc12
TGI (786-0 renal): > 100 µM
TGI (A498 renal): > 100 µM
TGI (A549 NSCLC): > 100 µM
TGI (ACHN renal): > 100 µM
TGI (BT-549 breast): > 100 µM
TGI (CAKI-1 renal): > 100 µM
TGI (CCRF-CEM leukemia): > 100 µM
TGI (COLO 205 colon): > 100 µM
TGI (DU-145 prostate): > 100 µM
TGI (EKVX NSCLC): > 100 µM
TGI (HCC-2998 colon): > 100 µM
TGI (HCT-116 colon): > 100 µM
TGI (HCT-15 colon): > 100 µM
TGI (HL-60(TB) leukemia): 82.9 µM
TGI (HOP-62 NSCLC): > 100 µM
TGI (HOP-92 NSCLC): > 100 µM
TGI (HS 578T breast): > 100 µM
TGI (HT29 colon): > 100 µM
TGI (IGROV1 ovarian): > 100 µM
TGI (K-562 leukemia): > 100 µM
TGI (KM12 colon): > 100 µM
TGI (LOX IMVI melanoma): > 100 µM
TGI (M14 melanoma): > 100 µM
TGI (MALME-3M melanoma): > 100 µM
TGI (MCF7 breast): > 100 µM
TGI (MDA-MB-231 breast): > 100 µM
TGI (MDA-MB-435): > 100 µM
TGI (MDA-N): > 100 µM
TGI (MOLT-4 leukemia): 10.6 µM
TGI (NCI-H226 lung): > 100 µM
TGI (NCI-H23 lung): > 100 µM
TGI (NCI-H460 lung): > 100 µM
TGI (NCI-H522 lung): > 100 µM
TGI (NCI/ADR-RES ovarian): > 100 µM
TGI (OVCAR-3 ovarian): 88.4 µM
TGI (OVCAR-4 ovarian): > 100 µM
TGI (OVCAR-5 ovarian): > 100 µM
TGI (OVCAR-8 ovarian): > 100 µM
TGI (PC-3 prostate): > 100 µM
TGI (RPMI-8226 leukemia): > 100 µM
TGI (RXF 393 renal): > 100 µM
TGI (SF-268 CNS): > 100 µM
TGI (SF-295 CNS): > 100 µM
TGI (SF-539 CNS): > 100 µM
TGI (SK-MEL-2 melanoma): > 100 µM
TGI (SK-MEL-28 melanoma): > 100 µM
TGI (SK-MEL-5 melanoma): > 100 µM
TGI (SK-OV-3 ovarian): > 100 µM
TGI (SN12C renal): > 100 µM
TGI (SNB-19 CNS): > 100 µM
TGI (SNB-75 CNS): > 100 µM
TGI (SR leukemia): 16.5 µM
TGI (SW-620 colon): > 100 µM
TGI (T-47D breast): > 100 µM
TGI (TK-10 renal): > 100 µM
TGI (U251 CNS): > 100 µM
TGI (UACC-257 melanoma): > 100 µM
TGI (UACC-62 melanoma): > 100 µM
TGI (UO-31 renal): > 100 µM

CC(=O)[O-].[O-]c1c(Cl)cc(Cl)cc1/C=N/Nc1ccccn1.[Zn+2]
TGI (786-0 renal): > 100 µM
TGI (A498 renal): > 100 µM
TGI (A549 NSCLC): > 100 µM
TGI (COLO 205 colon): > 100 µM
TGI (DLD-1 colon): > 100 µM
TGI (DMS 114 small cell lung): 0.605 µM
TGI (EKVX NSCLC): 9.01 µM
TGI (HCC-2998 colon): > 100 µM
TGI (HCT-116 colon): > 100 µM
TGI (HCT-15 colon): > 100 µM
TGI (HL-60(TB) leukemia): 0.736 µM
TGI (HOP-92 NSCLC): 0.803 µM
TGI (HT29 colon): > 100 µM
TGI (IGROV1 ovarian): > 100 µM
TGI (K-562 leukemia): > 100 µM
TGI (KM12 colon): > 100 µM
TGI (KM20L2 colon): > 100 µM
TGI (LOX IMVI melanoma): > 100 µM
TGI (LXFL 529 NSCLC): > 100 µM
TGI (M19-MEL melanoma): > 100 µM
TGI (MALME-3M melanoma): > 100 µM
TGI (MOLT-4 leukemia): 0.581 µM
TGI (NCI-H226 lung): > 100 µM
TGI (NCI-H460 lung): > 100 µM
TGI (NCI-H522 lung): 20.6 µM
TGI (OVCAR-3 ovarian): 0.707 µM
TGI (OVCAR-5 ovarian): 6.43 µM
TGI (OVCAR-8 ovarian): 0.837 µM
TGI (SF-295 CNS): 5.41 µM
TGI (SK-MEL-2 melanoma): 1.98 µM
TGI (SK-MEL-28 melanoma): > 100 µM
TGI (SN12C renal): > 100 µM
TGI (SNB-19 CNS): > 100 µM
TGI (SNB-75 CNS): > 100 µM
TGI (SR leukemia): 0.675 µM
TGI (U251 CNS): > 100 µM
TGI (UACC-257 melanoma): > 100 µM
TGI (UACC-62 melanoma): 2.43 µM
TGI (UO-31 renal): > 100 µM

CSc1nc(NC2OC(COC(C)=O)C(OC(C)=O)C(OC(C)=O)C2OC(C)=O)c(N=C(C)C(C)=O)c(=O)n1C (configuration not stated)
TGI (786-0 renal): > 100 µM
TGI (A549 NSCLC): > 100 µM
TGI (CAKI-1 renal): > 100 µM
TGI (CCRF-CEM leukemia): > 100 µM
TGI (COLO 205 colon): > 100 µM
TGI (DLD-1 colon): > 100 µM
TGI (DMS 114 small cell lung): > 100 µM
TGI (EKVX NSCLC): > 100 µM
TGI (HCC-2998 colon): > 100 µM
TGI (HCT-116 colon): > 100 µM
TGI (HL-60(TB) leukemia): > 100 µM
TGI (HOP-18 NSCLC): > 100 µM
TGI (HOP-62 NSCLC): > 100 µM
TGI (HOP-92 NSCLC): > 100 µM
TGI (HT29 colon): > 100 µM
TGI (IGROV1 ovarian): > 100 µM
TGI (K-562 leukemia): > 100 µM
TGI (KM12 colon): > 100 µM
TGI (LXFL 529 NSCLC): > 100 µM
TGI (M14 melanoma): > 100 µM
TGI (M19-MEL melanoma): > 100 µM
TGI (MALME-3M melanoma): > 100 µM
TGI (MOLT-4 leukemia): > 100 µM
TGI (NCI-H226 lung): > 100 µM
TGI (OVCAR-3 ovarian): > 100 µM
TGI (OVCAR-4 ovarian): > 100 µM
TGI (OVCAR-8 ovarian): > 100 µM
TGI (RPMI-8226 leukemia): > 100 µM
TGI (SF-295 CNS): > 100 µM
TGI (SF-539 CNS): > 100 µM
TGI (SK-MEL-2 melanoma): > 100 µM
TGI (SK-MEL-5 melanoma): > 100 µM
TGI (SK-OV-3 ovarian): > 100 µM
TGI (SNB-19 CNS): > 100 µM
TGI (SNB-78 CNS): > 100 µM
TGI (SW-620 colon): > 100 µM
TGI (TK-10 renal): > 100 µM
TGI (UACC-257 melanoma): > 100 µM
TGI (UACC-62 melanoma): > 100 µM
TGI (UO-31 renal): > 100 µM
